Reference: ChEMBL document CHEMBL1123897, “Nucleosides. 146. 1-Methyl-5-(2-deoxy-2-fluoro-beta-D-arabinofuranosyl)uracil, the C-nucleoside isostere of the potent antiviral agent 1-(2-deoxy-2-fluoro-beta-D-arabinofuranosyl)thymine (FMAU). Studies directed toward the synthesis of 2'-deoxy-2'-substituted arabino nucleosides. 6” (1987)

Columns and labels:
Type in all cases: functional
Conditions in all cases: read-out: ED50 (the source's name)
Homo sapiens [1] = species: Homo sapiens; test: In vitro inhibitory activity against Herpes simplex virus-1(HSV-1) was determined in human foreskin fibroblasts
Homo sapiens [2] = species: Homo sapiens; test: In vitro inhibitory activity against Herpes simplex […] was determined in human foreskin fibroblasts
Homo sapiens [3] = species: Homo sapiens; test: In vitro inhibitory activity against Varicella zoster virus(VZV) was determined in human foreskin fibroblasts

| SMILES | EC50 (Homo sapiens [1]) [µM] | EC50 (Homo sapiens [2]) [µM] | EC50 (Homo sapiens [3]) [µM] |
| --- | --- | --- | --- |
| Cn1cc([C@@H]2O[C@H](CO)[C@@H](O)[C@@H]2F)c(=O)[nH]c1=O | 8.5 | 23 | 6.4 |
| Cc1cn([C@@H]2O[C@H](CO)[C@@H](O)[C@@H]2F)c(=O)[nH]c1=O [5-METHYL-2'-FLUOROARAURACIL] | 0.06 | 0.13 | 0.02 |
